Data: PubChem BioAssay (NCI)
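GI50: concentration for 50% inhibition of growth. TGI is the concentration that stops growth completely.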

How the values were obtained:
Assay in all cases: inhibition of tumour cell growth, NCI panel, 384-well format
786-0 renal = tested on: 786-0 renal
A498 renal = tested on: A498 renal
A549 NSCLC = tested on: A549 NSCLC
ACHN renal = tested on: ACHN renal
BT-549 breast = tested on: BT-549 breast
CAKI-1 renal = tested on: CAKI-1 renal
CCRF-CEM leukemia = tested on: CCRF-CEM leukemia
COLO 205 colon = tested on: COLO 205 colon
DU-145 prostate = tested on: DU-145 prostate
EKVX NSCLC = tested on: EKVX NSCLC
HCC-2998 colon = tested on: HCC-2998 colon
HCT-116 colon = tested on: HCT-116 colon
HCT-15 colon = tested on: HCT-15 colon
HL-60(TB) leukemia = tested on: HL-60(TB) leukemia
HOP-62 NSCLC = tested on: HOP-62 NSCLC
HOP-92 NSCLC = tested on: HOP-92 NSCLC
HS 578T breast = tested on: HS 578T breast
HT29 colon = tested on: HT29 colon
IGROV1 ovarian = tested on: IGROV1 ovarian
K-562 leukemia = tested on: K-562 leukemia
KM12 colon = tested on: KM12 colon
LOX IMVI melanoma = tested on: LOX IMVI melanoma
M14 melanoma = tested on: M14 melanoma
MALME-3M melanoma = tested on: MALME-3M melanoma
MCF7 breast = tested on: MCF7 breast
MDA-MB-231 breast = tested on: MDA-MB-231 breast
MDA-MB-435 melanoma = tested on: MDA-MB-435 melanoma
MDA-MB-468 breast = tested on: MDA-MB-468 breast
MOLT-4 leukemia = tested on: MOLT-4 leukemia
NCI-H226 lung = tested on: NCI-H226 lung
NCI-H23 lung = tested on: NCI-H23 lung
NCI-H322M lung = tested on: NCI-H322M lung
NCI-H460 NSCLC = tested on: NCI-H460 NSCLC
NCI-H522 lung = tested on: NCI-H522 lung
NCI/ADR-RES ovarian = tested on: NCI/ADR-RES ovarian
OVCAR-3 ovarian = tested on: OVCAR-3 ovarian
OVCAR-4 ovarian = tested on: OVCAR-4 ovarian
OVCAR-8 ovarian = tested on: OVCAR-8 ovarian
PC-3 prostate = tested on: PC-3 prostate
RPMI-8226 leukemia = tested on: RPMI-8226 leukemia
RXF 393 renal = tested on: RXF 393 renal
SF-268 CNS = tested on: SF-268 CNS
SF-295 CNS = tested on: SF-295 CNS
SF-539 CNS = tested on: SF-539 CNS
SK-MEL-28 melanoma = tested on: SK-MEL-28 melanoma
SK-MEL-5 melanoma = tested on: SK-MEL-5 melanoma
SK-OV-3 ovarian = tested on: SK-OV-3 ovarian
SN12C renal = tested on: SN12C renal
SNB-19 CNS = tested on: SNB-19 CNS
SNB-75 CNS = tested on: SNB-75 CNS
SR leukemia = tested on: SR leukemia
SW-620 colon = tested on: SW-620 colon
T-47D breast = tested on: T-47D breast
TK-10 renal = tested on: TK-10 renal
U251 glioblastoma = tested on: U251 glioblastoma
UACC-257 melanoma = tested on: UACC-257 melanoma
UACC-62 melanoma = tested on: UACC-62 melanoma
UO-31 renal = tested on: UO-31 renal

Question: Which GI50 ([…]-0 renal) does the source give for N#CC1(c2ccc(NC(=O)c3cccnc3NCc3ccncc3)cc2)CCCC1 here?
Answer: 4.39 µM

Question: What about the TGI (786-0 renal) of the same molecule?
Answer: 15.5 µM

Question: What about the GI50 (A498 renal) of the same molecule?
Answer: 7.95 µM

Question: What about the TGI (A498 renal) of the same molecule?
Answer: 20.5 µM

Question: What about the GI50 (A549 NSCLC) of the same molecule?
Answer: 12.1 µM

Question: What about the TGI (A549 NSCLC) of the same molecule?
Answer: 25.5 µM

Question: And the GI50 (ACHN renal)?
Answer: 13.7 µM

Question: What about the TGI (ACHN renal) of the same molecule?
Answer: 36.2 µM

Question: What about the GI50 (BT-549 breast) of the same molecule?
Answer: 8.33 µM

Question: What about the TGI (BT-549 breast) of the same molecule?
Answer: 22.9 µM

Question: And the GI50 (CAKI-1 renal)?
Answer: 11.7 µM

Question: What about the TGI (CAKI-1 renal) of the same molecule?
Answer: 25 µM

Question: What about the GI50 (CCRF-CEM leukemia) of the same molecule?
Answer: 4.22 µM

Question: And the TGI (CCRF-CEM leukemia)?
Answer: 17.6 µM

Question: What about the GI50 (COLO 205 colon) of the same molecule?
Answer: 13.4 µM

Question: What about the TGI (COLO 205 colon) of the same molecule?
Answer: 37.6 µM

Question: What about the GI50 (DU-145 prostate) of the same molecule?
Answer: 12.3 µM

Question: And the TGI (DU-145 prostate)?
Answer: 33.5 µM

Question: And the GI50 (EKVX NSCLC)?
Answer: 6.32 µM

Question: What about the TGI (EKVX NSCLC) of the same molecule?
Answer: 25.8 µM

Question: What about the GI50 (HCC-2998 colon) of the same molecule?
Answer: 5.87 µM

Question: What about the TGI (HCC-2998 colon) of the same molecule?
Answer: 17.3 µM

Question: What about the GI50 (HCT-116 colon) of the same molecule?
Answer: 10.6 µM

Question: What about the TGI (HCT-116 colon) of the same molecule?
Answer: 22.4 µM

Question: What about the GI50 (HCT-15 colon) of the same molecule?
Answer: 3.17 µM

Question: And the TGI (HCT-15 colon)?
Answer: 12.5 µM

Question: And the GI50 (HL-60(TB) leukemia)?
Answer: 2.05 µM

Question: What about the TGI (HL-60(TB) leukemia) of the same molecule?
Answer: 3.76 µM

Question: What about the GI50 (HOP-62 NSCLC) of the same molecule?
Answer: 11.2 µM

Question: What about the TGI (HOP-62 NSCLC) of the same molecule?
Answer: 23.7 µM

Question: What about the GI50 (HOP-92 NSCLC) of the same molecule?
Answer: 10.3 µM

Question: And the TGI (HOP-92 NSCLC)?
Answer: 23.8 µM

Question: And the GI50 (HS 578T breast)?
Answer: 3.38 µM

Question: What about the TGI (HS 578T breast) of the same molecule?
Answer: 15.2 µM

Question: And the GI50 (HT29 colon)?
Answer: 3.99 µM

Question: And the TGI (HT29 colon)?
Answer: 12.6 µM

Question: And the GI50 (IGROV1 ovarian)?
Answer: 13.7 µM

Question: What about the TGI (IGROV1 ovarian) of the same molecule?
Answer: 31 µM

Question: What about the GI50 (K-562 leukemia) of the same molecule?
Answer: 2.88 µM

Question: And the TGI (K-562 leukemia)?
Answer: 12.2 µM

Question: What about the GI50 (KM12 colon) of the same molecule?
Answer: 13 µM

Question: And the TGI (KM12 colon)?
Answer: 26.5 µM

Question: What about the GI50 (LOX IMVI melanoma) of the same molecule?
Answer: 13.3 µM

Question: And the TGI (LOX IMVI melanoma)?
Answer: 26.1 µM

Question: What about the GI50 (M14 melanoma) of the same molecule?
Answer: 12.6 µM

Question: What about the TGI (M14 melanoma) of the same molecule?
Answer: 30 µM

Question: And the GI50 (MALME-3M melanoma)?
Answer: 3.09 µM

Question: What about the TGI (MALME-3M melanoma) of the same molecule?
Answer: 13.2 µM

Question: And the GI50 (MCF7 breast)?
Answer: 5.9 µM

Question: What about the TGI (MCF7 breast) of the same molecule?
Answer: 21.2 µM

Question: What about the GI50 (MDA-MB-231 breast) of the same molecule?
Answer: 4.96 µM

Question: And the TGI (MDA-MB-231 breast)?
Answer: 20.3 µM

Question: And the GI50 (MDA-MB-435 melanoma)?
Answer: 14.5 µM

Question: What about the TGI (MDA-MB-435 melanoma) of the same molecule?
Answer: 28.2 µM

Question: What about the GI50 (MDA-MB-468 breast) of the same molecule?
Answer: 3.62 µM

Question: And the TGI (MDA-MB-468 breast)?
Answer: 14.3 µM

Question: And the GI50 (MOLT-4 leukemia)?
Answer: 4.64 µM

Question: And the TGI (MOLT-4 leukemia)?
Answer: 17.3 µM

Question: What about the GI50 (NCI-H226 lung) of the same molecule?
Answer: 11 µM

Question: And the TGI (NCI-H226 lung)?
Answer: 27.5 µM

Question: And the GI50 (NCI-H23 lung)?
Answer: 9.55 µM

Question: What about the TGI (NCI-H23 lung) of the same molecule?
Answer: 23.1 µM

Question: And the GI50 (NCI-H322M lung)?
Answer: 12.2 µM

Question: And the TGI (NCI-H322M lung)?
Answer: 31.2 µM

Question: What about the GI50 (NCI-H460 NSCLC) of the same molecule?
Answer: 7.74 µM

Question: And the TGI (NCI-H460 NSCLC)?
Answer: 20.3 µM

Question: What about the GI50 (NCI-H522 lung) of the same molecule?
Answer: 10.5 µM

Question: And the TGI (NCI-H522 lung)?
Answer: 22.5 µM

Question: What about the GI50 (NCI/ADR-RES ovarian) of the same molecule?
Answer: 11 µM

Question: What about the TGI (NCI/ADR-RES ovarian) of the same molecule?
Answer: 27.2 µM

Question: And the GI50 (OVCAR-3 ovarian)?
Answer: 9.01 µM

Question: And the TGI (OVCAR-3 ovarian)?
Answer: 21.7 µM

Question: And the GI50 (OVCAR-4 ovarian)?
Answer: 11.7 µM

Question: What about the TGI (OVCAR-4 ovarian) of the same molecule?
Answer: 30.1 µM

Question: What about the GI50 (OVCAR-8 ovarian) of the same molecule?
Answer: 11.1 µM

Question: And the TGI (OVCAR-8 ovarian)?
Answer: 24.7 µM

Question: And the GI50 (PC-3 prostate)?
Answer: 9.47 µM

Question: And the TGI (PC-3 prostate)?
Answer: 23.1 µM

Question: What about the GI50 (RPMI-8226 leukemia) of the same molecule?
Answer: 1.95 µM

Question: What about the TGI (RPMI-8226 leukemia) of the same molecule?
Answer: 5.66 µM

Question: What about the GI50 (RXF 393 renal) of the same molecule?
Answer: 1.84 µM

Question: What about the TGI (RXF 393 renal) of the same molecule?
Answer: 5.83 µM

Question: What about the GI50 (SF-268 CNS) of the same molecule?
Answer: 12.9 µM

Question: What about the TGI (SF-268 CNS) of the same molecule?
Answer: 27.2 µM

Question: And the GI50 (SF-295 CNS)?
Answer: 9.76 µM

Question: And the TGI (SF-295 CNS)?
Answer: 21.5 µM

Question: And the GI50 (SF-539 CNS)?
Answer: 4.43 µM

Question: What about the TGI (SF-539 CNS) of the same molecule?
Answer: 19.2 µM

Question: What about the GI50 (SK-MEL-28 melanoma) of the same molecule?
Answer: 13.8 µM

Question: And the TGI (SK-MEL-28 melanoma)?
Answer: 40.6 µM

Question: What about the GI50 (SK-MEL-5 melanoma) of the same molecule?
Answer: 2.82 µM

Question: And the TGI (SK-MEL-5 melanoma)?
Answer: 13 µM

Question: And the GI50 (SK-OV-3 ovarian)?
Answer: 12.1 µM

Question: And the TGI (SK-OV-3 ovarian)?
Answer: 24.6 µM

Question: And the GI50 (SN12C renal)?
Answer: 7.37 µM

Question: And the TGI (SN12C renal)?
Answer: 25.3 µM

Question: And the GI50 (SNB-19 CNS)?
Answer: 14.3 µM

Question: And the TGI (SNB-19 CNS)?
Answer: 28.9 µM

Question: And the GI50 (SNB-75 CNS)?
Answer: 7.08 µM

Question: What about the TGI (SNB-75 CNS) of the same molecule?
Answer: 20.7 µM

Question: And the GI50 (SR leukemia)?
Answer: 2.45 µM

Question: And the TGI (SR leukemia)?
Answer: 4.9 µM

Question: And the GI50 (SW-620 colon)?
Answer: 8.06 µM

Question: And the TGI (SW-620 colon)?
Answer: 20 µM

Question: What about the GI50 (T-47D breast) of the same molecule?
Answer: 2.75 µM

Question: And the TGI (T-47D breast)?
Answer: 14.5 µM

Question: And the GI50 (TK-10 renal)?
Answer: 11.2 µM

Question: And the TGI (TK-10 renal)?
Answer: 28.8 µM

Question: And the GI50 (U251 glioblastoma)?
Answer: 12.6 µM

Question: And the TGI (U251 glioblastoma)?
Answer: 25.1 µM

Question: And the GI50 (UACC-257 melanoma)?
Answer: 10.4 µM

Question: What about the TGI (UACC-257 melanoma) of the same molecule?
Answer: 25.1 µM

Question: What about the GI50 (UACC-62 melanoma) of the same molecule?
Answer: 10.9 µM

Question: What about the TGI (UACC-62 melanoma) of the same molecule?
Answer: 22.9 µM

Question: What about the GI50 (UO-31 renal) of the same molecule?
Answer: 12.6 µM

Question: And the TGI (UO-31 renal)?
Answer: 25.2 µM
